According to patent US20220151979A1, “COMPOSITION FOR PREVENTION OR TREATMENT OF CARDIOVASCULAR AND METABOLIC DISEASE COMPRISING NORANHYDROICARITIN” (SEOUL NATIONAL UNIVERSITY HOSPITAL, priority 2019, published 2022):

How the values were obtained:
[1] = test system: HEK293T cells; assay: MTT cell viability of HEK293T cells; format: cell-based, human; conditions: 20 μM, 24 hours, relative to DMSO negative control
Description: In order to confirm the toxicity of noranhydroicaritin to cells, HEK293T (human embryonic kidneys) were treated with noranhydroicaritin at various concentrations, and the cell viability at each concentration of noranhydroicaritin was calculated through the MTT screening method.
Specifically, HEK293T cells were suspended in DMEM (Welgene Inc.) medium containing 10% fetal bovine serum at a concentration of 1×10^5 cells/mL, and 100 μL thereof was inoculated into each well of a 96-well plate. After 4 hours, the HEK293T cells in the well plate were treated with noranhydroicaritin samples at concentrations of 2.5 μM, 5 μM, 10 μM, and 20 μM. After incubation for 24 hours, 5 μL of MTT (5 mg/mL) was added to the well plate, and the cells were further incubated for 4 hours. Thereafter, the medium was removed, 100 μL of DMSO was added to the well plate, the reaction was conducted, and then the absorbance was measured at 570 nm. As a control, cholesterol synthesis inhibitors atorvastatin (Ato) and rosuvastatin (Ros) were used. The cell viability was calculated according to the mathematical formula as a value relative to 100% of the value for the negative control treated only with DMSO. The results are illustrated in FIG. 2.

[2] = test system: PCSK9; assay: Immunofluorescence of PCSK9 in carotid artery, mouse arteriosclerosis model; format: in vivo; conditions: 10 μg/g/day, compared to control
Description: Carotid artery ligation was performed one week after injection of AAV-PCSK9 Virus (1×10^11 IFU/mL) and noranhydroicaritin (10 μg/g/day). After 3 weeks of ligation, it was confirmed whether the atherosclerosis model was completed, and gross plaque imaging and immunofluorescence were performed to confirm the arteriosclerosis inhibitory effect of noranhydroicaritin.
Furthermore, the arteriosclerosis inhibitory effect of noranhydroicaritin was confirmed using immunofluorescence. Specifically, a mouse carotid artery was obtained and fixed in 4% PFA for one day, and then prepared into a block. As the inflammatory response in blood vessels progresses, the arteriosclerosis worsens, and thus the marker […] of macrophages causing arteriosclerotic inflammatory response and TNF-α, IL-1B, and MCP-1, which are pro-inflammatory cytokines secreted when the inflammatory response occurs, were stained. Staining was performed using the antibody for each of CAP1(1:200), PCSK9(1:100), F4/80(1:100), TNF-α(1:100), […], and MCP-1(1:100), then imaging was performed using a confocal microscope, and […] was evaluated.

[3] = test system: PCSK9; assay: Immunoblot of PCSK9 in HepG2 cells, noranhydroicaritin and pravastatin, pitavastatin, fluvastatin or simvastatin (Table 1); format: cell-based, human; conditions: noranhydroicaritin 20 μM singly, untreated = 1 ± 0.04
Description: The cells aliquoted by the method of Example 7 were treated with noranhydroicaritin or each statin (pravastatin, pitavastatin, fluvastatin, or simvastatin) singly or with noranhydroicaritin and a statin (pravastatin, pitavastatin, fluvastatin, or simvastatin) simultaneously, and the proteins were extracted. On an SDS-polyacrylamide gel, 30 μg of each protein was electrophoresed, and attached to a membrane, and then protein expression levels were confirmed using the respective antibodies: PCSK9 and LDLR.

In the case of `CC(C)=CCc1c(O)cc(O)c2c(=O)c(O)c(-c3ccc(O)cc3)oc12` [Noranhydroicaritin, noranhydroicaritin], the cell viability [1] is reported as ≥ 90%, the “expression of PCSK9 (immunofluorescence)” value [2] is reported as “significantly decreased” and the PCSK9 [3] is reported as 0.34 ± 0.02.
